Data: ChEMBL document CHEMBL1133267, “The total synthesis of piclavines A1-4 and their biological evaluation” (Bioorg Med Chem Lett, 2000)
In brackets after ≈: the same amount, converted by molar mass. Activity calls are given as the source filed them. The rule behind the calls is not given here.

Experiments:
Human alphaherpesvirus 1 = assay: Compound was evaluated for antiviral activity against Herpes simplex virus type 1; ND means Not detected owing to toxicity; type: functional, organism-based
Influenza A virus = assay: Compound was evaluated for antiviral activity against Influenza virus A/PR/8; type: functional, organism-based
MDCK = assay: Compound was evaluated for inhibition of MDCK cell growth; type: functional; conditions: Canis lupus familiaris
Streptococcus pneumoniae [1] = assay: Compound was evaluated for antibacterial activity against Streptococcus pneumoniae; weak activity; type: functional, organism-based
Vero = assay: Compound was evaluated for inhibition of cell growth of Vero cells; type: functional; conditions: Chlorocebus sabaeus
Candida albicans = assay: Compound was evaluated for inhibitory activity on Candida albicans; active; type: functional, organism-based
Streptococcus pneumoniae [2] = assay: Compound was evaluated for antibacterial activity against Streptococcus pneumoniae; IA means Inactive; type: functional, organism-based

CCCCCCC/C=C\C[C@H]1CCC[C@@H]2CCCN21
IC50 (Human alphaherpesvirus 1): Not detected
IC50 (Influenza A virus): 3.72 µg/mL (≈ 14.1 µM)
CC50 (MDCK): 9.28 µg/mL (≈ 35.2 µM)
Activity (Streptococcus pneumoniae [1]): weak activity
CC50 (Vero): 7.67 µg/mL (≈ 29.1 µM)
Activity (Candida albicans): Active

CCCCCCC/C=C\C[C@@H]1CCC[C@@H]2CCCN21
IC50 (Human alphaherpesvirus 1): Not detected
IC50 (Influenza A virus): 4.2 µg/mL (≈ 15.9 µM)
CC50 (MDCK): 17.1 µg/mL (≈ 64.9 µM)
Activity (Streptococcus pneumoniae [2]): inactive
CC50 (Vero): 40.9 µg/mL (≈ 155 µM)

CCCCCCC/C=C/C[C@@H]1CCC[C@@H]2CCCN21
IC50 (Human alphaherpesvirus 1): Not detected
IC50 (Influenza A virus): 1.45 µg/mL (≈ 5.5 µM)
CC50 (MDCK): 20.1 µg/mL (≈ 76.3 µM)
Activity (Streptococcus pneumoniae [2]): inactive
CC50 (Vero): 42.3 µg/mL (≈ 161 µM)

CCCCCCC/C=C/C[C@H]1CCC[C@@H]2CCCN21
IC50 (Human alphaherpesvirus 1): Not detected
IC50 (Influenza A virus): 4.84 µg/mL (≈ 18.4 µM)
CC50 (MDCK): 8.92 µg/mL (≈ 33.9 µM)
Activity (Streptococcus pneumoniae [1]): weak activity
CC50 (Vero): 9.18 µg/mL (≈ 34.8 µM)
